Assay results as given in PMC5435539 (Journal of applied toxicology : JAT, 2017).
Like-named read-outs stand apart in the source and are kept apart here.

Legend:
human CYP2C19 = human CYP2C19 (Homo sapiens, UniProt P33261); test: Fluorometric CYP inhibition assay; format: biochemical; details: read-out: IC50 CYP2C19 activity; recombinant human CYP2C19, CEC 25 μM
[1] = test system: MCF-10A breast epithelial cells; test: Reactive oxygen species; format: cell-based, human; details: 2 h, MCF-10A cells
[2] = test system: MCF-7 breast cancer cells; test: Alamar Blue cell viability assay, 72 h; format: cell-based; details: read-out: IC50 MCF-7 cell viability, 72 h
[3] = test system: MCF-10A breast epithelial cells; test: Cell viability assay; format: cell-based, human; details: for IC50 MCF-10A: 24 h exposure, 1 nM-100 μM, MTS or Alamar Blue, mean ±SEM; for IC50: Homo sapiens, MCF-10A, 24 h, read-out: IC50 MCF-10A
[4] = test system: HT29 colon carcinoma cells; test: Cell viability assay; format: cell-based; details: for IC50 HT29: 24 h exposure, 1 nM-100 μM, MTS or Alamar Blue, mean ±SEM; for IC50: Homo sapiens, HT-29, 24 h, read-out: IC50 HT29
[5] = test system: CCD18 Co normal colon cells; test: Cell viability assay; format: cell-based; details: for IC50 CCD18 Co: 24 h exposure, 1 nM-100 μM, MTS or Alamar Blue, mean ±SEM
MCF-7 cells [6] = test: Annexin V-7AAD apoptosis assay; format: cell-based; details: 1 μM, 24 h, AnnexinV-7AAD
human CYP3A4 = human CYP3A4 (Homo sapiens, UniProt P08684); test: Fluorometric CYP inhibition assay; format: biochemical; details: read-out: IC50 CYP3A4 activity; recombinant human CYP3A4, BFC 50 μM
CYP1A2 mRNA = test: Real-time quantitative RT-PCR, B[a]P-induced gene expression in MCF-7 cells; format: cell-based; details: Gg 10-100 nM with B[a]P, 24 h
MCF-7 cells [7] = test: Alamar Blue cell viability assay, 24 h; format: cell-based; details: read-out: IC50 MCF-7 (Alamar Blue), 24 h treatment
human CYP1A1 = target: T1, human CYP1A1 (Homo sapiens, UniProt P04798); test: Fluorometric CYP inhibition assay; format: biochemical
T1 sequence (P04798 1-512): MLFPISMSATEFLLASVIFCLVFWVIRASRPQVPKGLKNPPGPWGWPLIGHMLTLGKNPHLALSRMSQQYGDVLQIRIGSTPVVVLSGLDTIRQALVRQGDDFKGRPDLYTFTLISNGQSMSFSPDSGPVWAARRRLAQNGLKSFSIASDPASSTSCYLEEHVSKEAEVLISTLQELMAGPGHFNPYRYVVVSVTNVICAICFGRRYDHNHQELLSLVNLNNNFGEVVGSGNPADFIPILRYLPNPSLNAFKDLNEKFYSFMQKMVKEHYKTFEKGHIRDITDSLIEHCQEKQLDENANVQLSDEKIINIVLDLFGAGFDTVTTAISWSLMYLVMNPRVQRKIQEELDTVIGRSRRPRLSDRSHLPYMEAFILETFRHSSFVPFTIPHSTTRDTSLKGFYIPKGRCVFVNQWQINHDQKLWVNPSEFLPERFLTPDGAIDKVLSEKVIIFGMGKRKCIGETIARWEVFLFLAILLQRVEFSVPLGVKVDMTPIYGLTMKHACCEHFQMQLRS

CYP1A1 mRNA = test: Real-time quantitative RT-PCR, B[a]P-induced gene expression in MCF-7 cells; format: cell-based; details: Gg 10-100 nM with B[a]P, 24 h
human CYP1B1 = target: T2, human CYP1B1 (Homo sapiens, UniProt Q16678); test: Fluorometric CYP inhibition assay; format: biochemical; details: recombinant human CYP1B1
T2 sequence (Q16678 1-543): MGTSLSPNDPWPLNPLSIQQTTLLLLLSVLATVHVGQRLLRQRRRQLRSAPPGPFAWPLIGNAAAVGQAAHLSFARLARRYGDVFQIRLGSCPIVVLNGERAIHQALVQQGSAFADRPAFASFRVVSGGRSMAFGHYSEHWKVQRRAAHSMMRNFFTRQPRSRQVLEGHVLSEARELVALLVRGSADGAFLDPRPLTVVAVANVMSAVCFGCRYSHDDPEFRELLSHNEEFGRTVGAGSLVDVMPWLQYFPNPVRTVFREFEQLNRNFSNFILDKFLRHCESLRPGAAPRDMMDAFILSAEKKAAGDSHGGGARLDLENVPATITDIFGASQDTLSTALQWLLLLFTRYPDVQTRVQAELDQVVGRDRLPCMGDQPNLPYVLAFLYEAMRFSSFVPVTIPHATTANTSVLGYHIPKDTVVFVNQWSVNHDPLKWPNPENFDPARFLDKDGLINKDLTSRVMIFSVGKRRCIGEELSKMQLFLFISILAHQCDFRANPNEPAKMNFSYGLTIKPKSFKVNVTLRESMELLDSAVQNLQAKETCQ

[8] = test system: CYP1A1 protein expression; test: B[a]P-induced CYP1A1 protein expression; format: cell-based; details: data not shown
CYP1 enzymes mRNA = test: Endogenous CYP1 mRNA expression in breast cancer cells; format: cell-based; details: Gg alone, data not shown

human CYP2C19, sequence (P33261 whole entry): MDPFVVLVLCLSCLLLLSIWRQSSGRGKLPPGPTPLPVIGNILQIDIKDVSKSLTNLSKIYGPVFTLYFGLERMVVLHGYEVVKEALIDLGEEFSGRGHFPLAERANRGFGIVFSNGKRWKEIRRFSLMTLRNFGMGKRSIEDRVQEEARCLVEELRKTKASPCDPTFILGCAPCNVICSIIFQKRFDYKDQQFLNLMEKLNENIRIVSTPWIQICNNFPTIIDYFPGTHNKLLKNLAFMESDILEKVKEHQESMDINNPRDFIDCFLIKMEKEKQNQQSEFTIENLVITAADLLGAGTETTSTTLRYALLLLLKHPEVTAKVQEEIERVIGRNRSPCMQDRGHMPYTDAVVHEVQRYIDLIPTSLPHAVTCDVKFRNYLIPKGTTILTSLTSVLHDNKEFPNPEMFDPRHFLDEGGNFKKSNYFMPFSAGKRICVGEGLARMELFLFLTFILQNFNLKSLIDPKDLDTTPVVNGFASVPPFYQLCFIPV
human CYP3A4, sequence (P08684 whole entry): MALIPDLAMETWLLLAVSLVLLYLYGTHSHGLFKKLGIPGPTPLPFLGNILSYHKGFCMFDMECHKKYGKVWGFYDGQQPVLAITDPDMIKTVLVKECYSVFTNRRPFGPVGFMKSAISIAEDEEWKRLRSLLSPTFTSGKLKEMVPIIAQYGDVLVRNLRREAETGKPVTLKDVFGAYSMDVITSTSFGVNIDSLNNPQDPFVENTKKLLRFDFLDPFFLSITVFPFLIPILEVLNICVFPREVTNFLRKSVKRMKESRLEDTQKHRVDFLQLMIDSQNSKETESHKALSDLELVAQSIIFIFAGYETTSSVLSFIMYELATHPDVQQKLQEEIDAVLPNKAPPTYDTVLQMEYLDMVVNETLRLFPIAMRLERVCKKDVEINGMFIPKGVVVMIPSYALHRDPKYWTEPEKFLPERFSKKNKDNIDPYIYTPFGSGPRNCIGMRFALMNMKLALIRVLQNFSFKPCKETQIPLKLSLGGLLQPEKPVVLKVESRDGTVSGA

CCC1(c2ccccc2)C(=O)NC(=O)N(Cc2ccccc2)C1=O (single isomer, unassigned; (-)) [NBPB, (−)-N-3-benzyl-phenobarbital, reference compound] showed an IC50 (human CYP2C19) of 0.3 ± 0.01 µM.

In the case of O=C1C=Cc2ccc3c4c(ccc1c24)-c1ccccc1C3=O [1,6-BPQ, benzo[a]pyrene-1,6-quinone, reference compound], the “increase in ROS levels” value ([1]; 1,6-BPQ 2 μM) is reported as 2 fold.

For CC/C(=C(\c1ccc(O)cc1)c1ccc(OCCN(C)C)cc1)c1ccccc1 [4OH-Tam, 4-hydroxy-tamoxifen], the IC50 ([2]; Homo sapiens, MCF7, 72 h) was 2600 nM.

In the case of O=c1[nH]cc(F)c(=O)[nH]1 [5-Fluorouracil, reference compound], the IC50 ([2]; Homo sapiens, MCF7, 72 h) is reported as > 10000 nM and the “IC50 MCF-10A” value [3] is reported as “NI (No inhibition (<10% inhibition at 60 μM))”.

CC1=CC(=O)[C@@H](O)[C@]2(C)[C@H]3[C@]4(O)OC[C@]35[C@H]([C@@H](C)[C@H]4O)[C@@H](O)C(=O)O[C@@H]5C[C@@H]12 [(−)-Glaucarubolone, (−)-glaucarubolone] was tested, and the “IC50 HT29” value [4] was “NI (No inhibition (<10% inhibition at 60 μM))”, the “IC50 CCD18 Co” value [5] was “NI (No inhibition (<10% inhibition at 60 μM))” and the “IC50 MCF-10A” value [3] was “NI (No inhibition (<10% inhibition at 60 μM))”.

For CC(=O)O[C@H]1C(=O)O[C@@H]2C[C@H]3C(C)=CC(=O)[C@@H](O)[C@]3(C)[C@H]3[C@]4(O)OC[C@]32[C@@H]1[C@@H](C)[C@H]4O [(−)-Holacanthone, (−)-holacanthone], the IC50 [4] was 9.91 ± 0.52 µM, the IC50 ([5]; Homo sapiens, CCD-18Co, 24 h, read-out: IC50 CCD18 Co) was < 5 µM and the IC50 [3] was 0.3 µM.

COc1cccc2c1C(=O)c1c(O)c3c(c(O)c1C2=O)C[C@@](O)(C(=O)CO)C[C@@H]3O[C@H]1C[C@H](N)[C@H](O)[C@H](C)O1 [Doxorubicin, reference compound] was tested, and the IC50 ([2]; Homo sapiens, MCF7, 72 h) was 100 nM and the IC50 [3] was 30.2 ± 1.29 µM.

In the case of COc1cc2ccc(=O)oc2cc1O [Scopoletin, scopoletin], the IC50 [4] is reported as 19.3 ± 0.348 µM, the “IC50 CCD18 Co” value [5] is reported as “NI (No inhibition (<10% inhibition at 60 μM))” and the “inhibition of viability of CCD18Co normal colon cells” value ([5]; at 60 μM, 24 h) is reported as < 10%. The “IC50 MCF-10A” value [3] was “NI (No inhibition (<10% inhibition at 60 μM))”.

For glaucarubulone glucoside [Gg], the IC50 ([2]; 72 h exposure, Alamar Blue) was 121 nM, the “IC50 HT29” value [4] was “NI (No inhibition (<10% inhibition at 60 μM))” and the early apoptosis (MCF-7 cells [6]) was 26.5 ± 9.5%. The IC50 (human CYP3A4) was 1.31 ± 0.49 µM, the “effect on B[a]P-induced CYP1A2 mRNA expression” value (CYP1A2 mRNA) was “sustained inhibition” and the IC50 (MCF-7 cells [7]) was 3.52 ± 0.918 µM. The IC50 (human CYP2C19) was 19.4 ± 1.11 µM, the “IC50 MCF-10A” value [3] was “NI (No inhibition (<10% inhibition at 60 μM))” and the “effect on 1,6-BPQ-mediated increases in ROS production” value ([1]; Gg 1 μM with 1,6-BPQ 2 μM) was “effectively suppressed”. For the same compound, the “mode of inhibition of CYP1A1” value (human CYP1A1; Eadie-Hofstee plots) was “non-competitive”, the IC50 (human CYP1A1; read-out: IC50 CYP1A1 activity, recombinant human CYP1A1, CEC 0.5 μM) was 6.93 ± 0.31 µM and the Ki (human CYP1A1; read-out: Ki CYP1A1, Eadie-Hofstee plots, non-competitive inhibition) was 7.1 ± 1.44 µM. The “effect on B[a]P-induced CYP1A1 mRNA expression” value (CYP1A1 mRNA) was “inhibited B[a]P-induced CYP1A1 mRNA expression in a dose-dependent fashion”, the “inhibition of CYP1B1 activity” value (human CYP1B1) was “moderately inhibited” and the “effect on B[a]P-mediated induced CYP1A1 protein expression” value [8] was “could not appreciably suppress”. For the same compound, the “effect on endogenous mRNA expression of CYP1 enzymes” value (CYP1 enzymes mRNA) was “did not appreciably affect”.
